Test results reported in the supplement of paper PMC10331698.
± gives the standard deviation of the averaged measurements.

Columns and labels:
Assay in all cases: level (log10 ratio to DMSO vehicle control); higher = higher biomarker level / cell amount than vehicle control
Conditions in all cases: in DMSO
[1] = compound: NC(=O)C(F)(F)C(F)(F)C(F)(F)C(F)F
Procedure: (§1)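 BioMAP Diversity Plus panel of 12 human primary cell co-culture systems (3C, 4H, LPS, SAg, BT, BF4T, BE3C, CASM3C, HDF3CGF, KF3CT, MyoF, Mphg). Compounds were added 1 h before stimulation and left for 24 h (MyoF 48 h; BT 72 h for soluble read-outs or 6 d for IgG). Biomarkers were read by ELISA, cytotoxicity by SRB, PBMC viability and proliferation by Alamar Blue. Each well value was divided by the mean of 8 DMSO control wells on the same plate and log10 transformed; duplicate blinded samples were tested at 4 concentrations.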

[2] = compound: O=S(=O)(O)C(F)(F)C(F)(F)C(F)(F)C(F)(F)C(F)(F)C(F)(F)C(F)(F)C(F)(F)C(F)(F)C(F)(F)F [Sodium perfluorodecanesulfonate]
Procedure: as §1

[3] = compound: FC(F)(F)C(F)(F)C(F)(F)C(F)(F)C(F)(F)C(F)(F)C(F)(F)I [1-Iodopentadecafluoroheptane]
Procedure: as §1

Heptafluorobutyl iodide = compound: FC(F)(F)C(F)(F)C(F)(F)CI [Heptafluorobutyl iodide]
Procedure: as §1

[4] = compound: FC(F)(F)C(F)(F)CNCC(F)(F)C(F)(F)F [Bis(1H,1H-perfluoropropyl)amine]
Procedure: as §1

Octafluoroadipamide = compound: NC(=O)C(F)(F)C(F)(F)C(F)(F)C(F)(F)C(N)=O [Octafluoroadipamide]
Procedure: as §1

Row | Test System | level (log10) ([1]; 6700 nM) | level (log10) ([1]; 20000 nM) | level (log10) ([1]; 60000 nM) | level (log10) ([2]; 1500 nM) | level (log10) ([2]; 4400 nM) | level (log10) ([2]; 13000 nM) | level (log10) ([2]; 40000 nM) | level (log10) ([3]; 6700 nM) | level (log10) ([3]; 20000 nM) | level (log10) (Heptafluorobutyl iodide; 6700 nM) | level (log10) (Heptafluorobutyl iodide; 20000 nM) | level (log10) (Heptafluorobutyl iodide; 60000 nM) | level (log10) ([4]; 6700 nM) | level (log10) ([4]; 20000 nM) | level (log10) ([4]; 60000 nM) | level (log10) (Octafluoroadipamide; 6700 nM) | level (log10) (Octafluoroadipamide; 20000 nM) | level (log10) (Octafluoroadipamide; 60000 nM)
1 | BF4T:tPA | -0.0005 ± 0.021 | -0.0115 ± 0.022 | 0.0125 ± 0.005 | 0.01 ± 0.0071 | 0.0175 ± 0.059 | 0.075 ± 0.018 | 0.068 ± 0.016 | 0.022 ± 0.025 | -0.0085 ± 0.016 | -0.016 ± 0.0042 | -0.0235 ± 0.0078 | -0.009 ± 0.05 | -0.062 ± 0.035 | -0.054 ± 0.023 | -0.0335 ± 0.0035 | -0.0475 ± 0.035 | -0.047 ± 0.045 | -0.023 ± 0.081
2 | BF4T:uPA | -0.001 ± 0.023 | -0.0145 ± 0.015 | -0.004 ± 0.021 | 0.0165 ± 0.0035 | 0.013 ± 0.017 | 0.0415 ± 0.005 | 0.06 ± 0.027 | -0.0365 ± 0.016 | -0.026 ± 0.016 | -0.008 ± 0.014 | -0.0095 ± 0.022 | -0.0045 ± 0.016 | -0.025 ± 0.011 | -0.0205 ± 0.013 | -0.0165 ± 0.0092 | -0.0405 ± 0.0092 | -0.0325 ± 0.021 | -0.0165 ± 0.026
3 | BT:B cell Proliferation | 0.0115 ± 0.0092 | -0.001 | 0.0215 ± 0.0092 | 0.0005 ± 0.021 | 0.0065 ± 0.0078 | 0.0015 ± 0.0035 | 0.0125 ± 0.0078 | -0.0045 ± 0.005 | 0.019 ± 0.0071 | 0.021 ± 0.021 | 0.015 ± 0.0071 | 0.021 ± 0.0042 | -0.005 ± 0.04 | 0.0145 ± 0.00071 | 0.0285 ± 0.0035 | -0.008 ± 0.025 | 0.018 ± 0.013 | 0.016 ± 0.025
4 | BT:Secreted IgG | 0.0115 ± 0.073 | 0.026 ± 0.0085 | -0.0005 ± 0.026 | -0.026 ± 0.038 | -0.0155 ± 0.022 | -0.0275 ± 0.046 | -0.028 ± 0.028 | -0.006 ± 0.05 | -0.01 ± 0.044 | 0.038 ± 0.02 | 0.0585 ± 0.018 | 0.0375 ± 0.028 | 0.0095 ± 0.0021 | 0.001 ± 0.023 | 0.0185 ± 0.00071 | 0.0345 ± 0.018 | 0.037 ± 0.0028 | 0.0215 ± 0.0078
5 | BT:sIL-6 | 0.0315 ± 0.074 | -0.0335 ± 0.023 | -0.0795 ± 0.11 | 0 ± 0.031 | -0.0045 ± 0.026 | -0.036 ± 0.1 | -0.0235 ± 0.05 | -0.0825 ± 0.0078 | 0.024 ± 0.044 | 0.0525 ± 0.0092 | 0.0485 ± 0.0035 | 0.003 ± 0.014 | 0.0285 ± 0.0064 | 0.02 ± 0.013 | 0.0245 ± 0.011 | 0.0215 ± 0.037 | 0.024 ± 0.0057 | 0.0065 ± 0.016
6 | BT:sIL-17A | 0.059 ± 0.033 | 0.025 ± 0.19 | -0.0885 ± 0.32 | 0.0435 ± 0.16 | 0.057 ± 0.17 | 0.052 ± 0.3 | -0.0495 ± 0.11 | -0.213 ± 0.3 | -0.112 ± 0.31 | 0.009 ± 0.02 | 0.009 ± 0.045 | -0.176 ± 0.11 | -0.0465 ± 0.067 | -0.075 ± 0.13 | -0.069 ± 0.25 | -0.107 ± 0.018 | -0.0535 ± 0.098 | 0.0055 ± 0.025
7 | BT:sIL-17F | 0.0335 ± 0.019 | -0.0275 ± 0.015 | -0.018 ± 0.023 | -0.025 ± 0.083 | 0.0315 ± 0.1 | 0.0615 ± 0.19 | 0.025 ± 0.086 | -0.0435 ± 0.049 | -0.0545 ± 0.16 | 0.033 ± 0.078 | 0.031 ± 0.016 | 0.029 ± 0.033 | -0.088 ± 0.042 | -0.0175 ± 0.076 | 0.0375 ± 0.0064 | 0.0465 ± 0.057 | 0.073 ± 0.05 | 0.06 ± 0.082
8 | BT:sTNF-alpha | 0.0475 ± 0.19 | -0.0695 ± 0.0035 | -0.0215 ± 0.047 | -0.018 ± 0.13 | 0.005 ± 0.067 | -0.0135 ± 0.0064 | 0.0075 ± 0.21 | -0.051 ± 0.018 | 0.093 ± 0.17 | -0.035 ± 0.22 | 0.149 ± 0.096 | 0.0905 ± 0.069 | 0.046 ± 0.05 | 0.0265 ± 0.21 | 0.0915 ± 0.12 | 0.058 ± 0.23 | 0.116 ± 0.098 | 0.194 ± 0.077
9 | LPS:M-CSF | -0.013 ± 0.028 | -0.011 ± 0.0014 | 0.0065 ± 0.023 | 0.0045 ± 0.021 | 0.005 ± 0.0057 | 0.01 ± 0.027 | -0.006 ± 0.037 | 0.023 ± 0.047 | 0.0155 ± 0.086 | -0.0225 ± 0.0064 | 0.007 ± 0.023 | 0.0065 ± 0.011 | -0.006 ± 0.083 | -0.0485 ± 0.12 | -0.0485 ± 0.087 | -0.029 ± 0.14 | 0.0205 ± 0.052 | 0.023 ± 0.047
10 | LPS:SRB | -0.011 ± 0.0071 | -0.006 ± 0.0042 | -0.0105 ± 0.00071 | 0.0025 ± 0.0021 | -0.001 ± 0.0057 | -0.0105 ± 0.00071 | -0.02 ± 0.017 | 0.0035 ± 0.0064 | 0.003 ± 0.0042 | -0.0035 ± 0.0021 | -0.0095 ± 0.0021 | 0.0045 ± 0.021 | -0.008 ± 0.0042 | 0.001 ± 0.016 | -0.0015 ± 0.0021 | -0.003 ± 0.011 | -0.0075 ± 0.0092 | 0.0015 ± 0.0035
11 | LPS:sPGE2 | -0.0045 ± 0.028 | -0.0005 ± 0.005 | 0.0315 ± 0.036 | 0.035 ± 0.02 | 0.006 ± 0.041 | -0.009 ± 0.04 | -0.123 ± 0.023 | -0.062 ± 0.013 | -0.103 ± 0.027 | -0.0175 ± 0.026 | 0.0095 ± 0.064 | 0.0105 ± 0.064 | 0.038 ± 0.033 | 0.005 ± 0.0014 | 0.0485 ± 0.067 | 0.083 ± 0.037 | -0.04 ± 0.018 | -0.0165 ± 0.026
12 | SAg:CCL2/MCP-1 | -0.0145 ± 0.026 | -0.024 ± 0.013 | 0.0115 ± 0.03 | 0.0175 ± 0.022 | -0.014 ± 0.016 | 0.043 ± 0.0085 | 0.0825 ± 0.021 | 0.02 ± 0.05 | 0.0105 ± 0.033 | -0.0095 ± 0.0078 | -0.0025 ± 0.00071 | 0.01 ± 0.011 | -0.013 ± 0.016 | -0.006 ± 0.0099 | 0.017 ± 0.028 | -0.001 ± 0.0071 | 0.002 ± 0.0014 | 0.0105 ± 0.016
13 | SAg:CD38 | -0.034 ± 0.014 | -0.027 ± 0.02 | -0.0295 ± 0.0064 | -0.018 ± 0.02 | -0.041 ± 0.03 | 0.005 ± 0.035 | -0.071 ± 0.028 | -0.0085 ± 0.029 | -0.005 ± 0.024 | -0.0205 ± 0.021 | -0.027 ± 0.016 | -0.017 ± 0.031 | 0.001 ± 0.017 | -0.008 ± 0.018 | 0.002 ± 0.014 | 0.0005 ± 0.00071 | 0.0005 ± 0.018 | 0.0065 ± 0.0021
14 | SAg:CD40 | -0.023 ± 0.0028 | -0.0155 ± 0.019 | -0.02 ± 0.028 | -0.0185 ± 0.032 | -0.042 ± 0.025 | -0.103 ± 0.055 | -0.212 ± 0.055 | -0.0065 ± 0.013 | -0.007 ± 0.0085 | -0.027 ± 0.011 | -0.0445 ± 0.016 | -0.024 ± 0.016 | 0.011 ± 0.017 | 0.0025 ± 0.0064 | -0.003 ± 0.02 | -0.002 ± 0.0028 | -0.001 ± 0.0014 | -0.001 ± 0.024
15 | SAg:CD62E/E-Selectin | 0.005 ± 0.04 | -0.0135 ± 0.039 | 0.0155 ± 0.036 | -0.0105 ± 0.0064 | 0.026 ± 0.0085 | 0.0755 ± 0.04 | 0.138 ± 0.036 | -0.0415 ± 0.056 | -0.008 ± 0.044 | -0.0225 ± 0.026 | 0.0065 ± 0.00071 | -0.025 ± 0.014 | 0.001 ± 0.013 | -0.0075 ± 0.016 | 0.01 ± 0.031 | 0.0015 ± 0.0078 | 0.0065 ± 0.022 | 0.0185 ± 0.028
16 | SAg:CD69 | 0.025 ± 0.0085 | 0.0175 ± 0.005 | 0.0495 ± 0.026 | 0.007 ± 0.011 | -0.0425 ± 0.015 | -0.0215 ± 0.00071 | -0.111 ± 0.0042 | -0.028 ± 0.0071 | -0.039 ± 0.0014 | -0.0425 ± 0.043 | -0.045 ± 0.03 | -0.032 ± 0.037 | 0.001 ± 0.0085 | -0.0075 ± 0.018 | -0.0125 ± 0.00071 | -0.0095 ± 0.011 | -0.013 ± 0.018 | 0.002 ± 0.013
17 | SAg:CXCL8/IL-8 | -0.0055 ± 0.037 | 0.0075 ± 0.015 | 0.0055 ± 0.018 | 0.0165 ± 0.025 | -0.0175 ± 0.016 | 0.06 ± 0.0042 | 0.126 ± 0.019 | -0.034 ± 0.035 | 0.0055 ± 0.073 | -0.053 ± 0.04 | -0.0345 ± 0.019 | -0.02 ± 0.072 | 0.0265 ± 0.059 | -0.0085 ± 0.023 | 0.0095 ± 0.053 | -0.001 ± 0.04 | 0.0075 ± 0.015 | 0.02 ± 0.0014
